Assay results published in patent publication US20150231209A1, “STIMULATION OF OVARIAN FOLLICLE DEVELOPMENT AND OOCYTE MATURATION” (THE BOARD OF TRUSTEES OF THE LELAND STANFORD JUNIOR …, priority 2012, published 2015).

Columns and labels:
[1] = tested on: CCN2; test: CCN2 transcript and protein levels of ovaries after JASP; type: cell-based; conditions: 30 min. exposure, ovaries from day 10 mice
Description: (§1) Left upper panel: Paired ovaries from day 10 mice were treated with or without JASP (10 μM) for 30 min. before analyses of F- and G-actin content. Left lower panel: Real-time RT-PCR analyses of CCN2 transcript levels after 30 min. exposure to JASP. Right panel: Immunoblotting analyses of CCN2 protein levels after 30 min. treatment with JASP. Upper panel: Immunoblotting analyses. Lower panel: quantitative analyses of densitometric scanning data. Numbers in parentheses are number of samples used. * p<0.05. […] Ovaries from day 10 mice were treated with or without different concentrations of JASP for 30 min. before grafting into adult hosts treated daily with FSH. Five days later, graft weights were determined.
Paired ovaries from CD-1 mice at different ages were excised in L-15 medium. One ovary from each animal was cut into 2-4 pieces, whereas the contralateral one remained intact. […]
Proteins from NIH3T3 cells or ovaries of mice at day 10 of age were extracted using M-PER Mammalian Protein Extraction Reagent (Thermo, Rockford, Ill.) containing a protease inhibitor cocktail (Thermo). […] Signals were developed using enhanced chemiluminescence (ECL Kit, GE Healthcare) and quantitated using a densitometer. […]

[2] = tested on: F-actin/G-actin; test: F-actin and G-actin content of ovaries after JASP; type: cell-based; conditions: 10 μM for 30 min., ovaries from day 10 mice
Description: as §1
Paired ovaries from CD-1 mice at different ages were excised in L-15 medium. One ovary from each animal was cut into 2-4 pieces, whereas the contralateral one remained intact. Ovaries were transferred to culture plate inserts (Millipore, Bedford, Mass.) and cultured in MEMa medium with 3 mg/ml BSA, 0.23 mM sodium pyruvate, 50 ug/ml vitamin C, 30 mIU/ml FSH, 50 mg/L streptomycin sulfate, and 75 mg/L penicillin G. After 30 min. of incubation, media were replaced and incubated for another 30 min. […]
Ratios of F-actin to G-actin in intact and fragmented ovaries were determined by F-actin/G-actin in vivo assay kit (Cytoskeleton, Denver, Colo.). […]

[3] = tested on: ovarian grafts; test: Ovarian grafting under kidney capsule of FSH-treated hosts: graft weights and follicle counting; type: in vivo, mice; conditions: ovaries treated 30 min. with different concentrations, grafted 5 days, hosts treated daily with FSH
Description: FIG. 3. Additive effects of Hippo signaling disruption and Akt stimulation promoted secondary follicle growth. A) Secondary follicles are responsive to IVA treatment. Secondary follicles (115 um in diameter) were isolated from mice at day 10 of age and cultured in vitro with the standard IVA protocol (first day with bPV(hopic) at 3 mM and 740YP at 15 ug/ml, followed by one more day with 740YP alone), followed by treatment with daily FSH (100 ng/ml) for two more days (IVA+FSH). The control groups were either treatment with media alone for four days or treated with the IVA reagent for two days followed by media alone (IVA alone). B) Ovarian fragmentation and IVA treatment led to additive effects on ovarian weight gain and secondary follicle growth. Paired ovaries from mice at day 10 of age were fragmented into three pieces. Fragments from one side were treated with the IVA protocol (bpV(hopic) at 30 uM and 740YP at 150 ng/ml for one day, followed by one more day with 740YP only) whereas fragments from the contralateral side were incubated in media alone. Ovarian fragments were then allo-transplanted into kidney capsules of adult ovariectomized mice with hosts injected with FSH (daily at 1 IU/animal). Five 5 days later, ovarian grafts were retrieved, fixed and weighted. Left panel: graft weights; right panel: Follicle dynamics of grafted ovarian fragments. Percentages of follicles at different stages were determined based on serial sections of grafts. C, Follicle dynamics before and after grafting of intact and fragmented murine ovaries with or without treatment with Akt stimulators. Left: total follicle numbers, Right: follicle dynamics. n=4. Same letter symbols indicate significant differences (p<0.05). D-F. Vitrified human cortical strips were thawed and fragmented into cubes before treatment with Akt stimulators for 2 days followed by grafting into immune-deficient mice for 4 weeks. D. Cortical strips before grafting. Arrow: a secondary follicle, arrowheads: primordial/primary follicles. Scale bar, 100 μm. E. A kidney graft in situ (left) and after isolation (right), showing an antral follicle. F. Histology of two large antral follicles with the side view of one showing an oocyte at the germinal vesicle stage (arrow). Scale bar, 1 mm. Mean±SEM; * p<0.05.
FIG. 7. Pre-treatment with verteporfin and CCN2 antibodies suppressed fragmentation-induced ovarian growth. A, Pretreatment with verteporfin suppressed fragmentation-induced increases in CCN2, but not AMH, transcript levels. Juvenile mice were injected i.p. with verteporfin for 3 h before retrieving ovaries for fragmentation. At 4 h after incubation, transcript levels for CCN2 and AMH were determined by real-time RT-PCR. n=6-12. […] Ovaries from juvenile mice pre-injected with verteporf in for 3 h were fragmented and incubated for 1 h before grafting into FSH-treated hosts for 5 days followed by determination of graft weights. Numbers in parentheses are number of samples used. C, Follicle dynamics of intact and fragmented ovarian grafts from animals with or without verteporf in (VP) pretreatment. n=3-5. D, Incubation of fragmented ovaries with CCN2 antibodies suppressed ovarian weight increases. Paired ovaries were fragmented into 3 pieces followed by incubation with CCN2 antibodies or non-immune-IgG for 18 h before grafting for 5 days. Mean±SEM; *p<0.05.
Left upper panel: Paired ovaries from day 10 mice were treated with or without JASP (10 μM) for 30 min. before analyses of F- and G-actin content. Left lower panel: Real-time RT-PCR analyses of CCN2 transcript levels after 30 min. exposure to JASP. Right panel: Immunoblotting analyses of CCN2 protein levels after 30 min. treatment with JASP. Upper panel: Immunoblotting analyses. Lower panel: quantitative analyses of densitometric scanning data. Numbers in parentheses are number of samples used. * p<0.05. […]

[4] = tested on: PTP; conditions: read-out: IC50, PTP inhibitor; cited from earlier work

Molecule | CCN2 expression (transcript and protein) [1] | actin polymerization (F- and G-actin content) [2] | weights of ovarian grafts [3] | IC50 [4] [µM]
C/C1=C\[C@H](C)C[C@H](C)OC(=O)C[C@H](c2ccc(O)cc2)NC(=O)[C@@H](Cc2c(Br)[nH]c3ccccc23)N(C)C(=O)[C@H](C)NC(=O)[C@@H](C)C1 [JASP, jasplakinolide] | increased | increased actin polymerization | increased weights of ovarian grafts | 
monoperoxo(picolinato)oxovanadate(V) |  |  |  | 18
